Reference: publication PMC8002023, “3D Pharmacophore-Based Discovery of Novel KV10.1 Inhibitors with Antiproliferative Activity” (Cancers, 2021)

Key:
Colo357 tumour spheroids = experiment: Apoptosis (caspase 3/7 reporter) in tumour spheroids; type: cell-based; settings: 50 µM, caspase reporter fluorescence over 72 h, 8.9 µM cycloheximide as sensitizer
Protocol: Spheroids were cultured in round bottom ultra-low attachment 96-well plates (Corning) at a density of 5000 cells/well in 2% Matrigel (Corning) and centrifuged at 1000× g for 10 min. Spheroid formation was monitored continuously in the Incucyte system and treatments were added once spheroids were formed. As apoptosis sensitizer, 8.9 µM cycloheximide was added to controls and treated spheroids. Caspase 3/7 green reagent (Sartorius; 1:1000) was used as recommended by the manufacturer. Caspase 3/7 reagent substrate crosses the cell membrane and its cleavage by activated caspase-3/7 results in the release of a DNA dye and fluorescent staining of nuclear DNA.
To test the ability of the compounds to inhibit tumour progression in a more predictive system, we performed experiments on tumour spheroids of the pancreatic cancer cell line Colo357, which grows efficiently in this culture modality. The cells were seeded in the presence of Matrigel (see methods), allowed to form spheroids, and the compounds (50 µM) were added to the growth medium. The control contained the same amount of the vehicle (0.5% DMSO). Apoptosis was monitored by addition of a fluorescent […] activity reporter at the same time as the compounds. Cleavage of the reporter by caspase results in green florescence, and the intensity of the fluorescence was recorded over 72 h.

KV10.1 = biological target: T1, KV10.1 (Homo sapiens, UniProt O95259); experiment: Whole-cell patch clamp on HEK-293 cells stably expressing KV10.1; type: cell-based; settings: HEK293; 10 μM; mean ± standard error (or range)
T1 construct: expressed in transfected cells
T1 sequence (O95259 1-962 isoform O95259-2): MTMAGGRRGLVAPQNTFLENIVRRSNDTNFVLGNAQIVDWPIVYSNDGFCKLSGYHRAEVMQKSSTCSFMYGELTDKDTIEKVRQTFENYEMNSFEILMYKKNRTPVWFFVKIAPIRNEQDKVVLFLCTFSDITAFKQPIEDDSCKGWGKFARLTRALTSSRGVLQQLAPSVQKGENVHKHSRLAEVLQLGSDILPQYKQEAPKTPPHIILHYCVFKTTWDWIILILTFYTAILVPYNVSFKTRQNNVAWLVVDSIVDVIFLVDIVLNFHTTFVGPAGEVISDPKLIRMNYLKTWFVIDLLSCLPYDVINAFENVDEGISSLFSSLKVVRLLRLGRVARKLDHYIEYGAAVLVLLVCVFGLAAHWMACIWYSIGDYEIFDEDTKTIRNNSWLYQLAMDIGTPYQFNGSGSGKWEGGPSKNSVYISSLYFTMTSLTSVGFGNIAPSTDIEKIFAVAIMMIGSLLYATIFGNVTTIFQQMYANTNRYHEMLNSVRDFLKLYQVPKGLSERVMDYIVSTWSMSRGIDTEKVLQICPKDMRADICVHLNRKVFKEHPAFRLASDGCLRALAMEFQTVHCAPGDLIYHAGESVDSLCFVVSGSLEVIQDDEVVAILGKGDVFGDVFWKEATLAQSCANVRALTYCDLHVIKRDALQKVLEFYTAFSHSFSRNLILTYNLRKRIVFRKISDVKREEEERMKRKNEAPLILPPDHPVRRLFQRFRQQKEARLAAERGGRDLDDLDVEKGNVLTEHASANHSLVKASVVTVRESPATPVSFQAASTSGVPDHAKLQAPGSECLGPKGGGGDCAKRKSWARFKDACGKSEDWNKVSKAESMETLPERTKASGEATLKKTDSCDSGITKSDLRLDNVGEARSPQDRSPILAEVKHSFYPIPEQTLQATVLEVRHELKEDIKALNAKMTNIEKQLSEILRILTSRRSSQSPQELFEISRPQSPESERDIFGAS

| Compound | apoptosis induction in tumour spheroids (Colo357 tumour spheroids) | inhibition at 10 µM (KV10.1) |
| --- | --- | --- |
| O=[N+]([O-])c1cc(C(F)(F)F)ccc1Nc1ccc(OCC(O)CN2CCOCC2)cc1 (stereo not drawn) [Compound 8] | apoptosis statistically significant over the control starting only after 24 h | 81.2 ± 4.97% |
| CN(C)CC(O)COc1ccc(Nc2ccc(C(F)(F)F)cc2[N+](=O)[O-])cc1 (stereo not drawn) [ZVS-08] | induced apoptosis efficiently starting very early | – |
